Values quoted from earlier work, collected in patent US5614503A, “Amphipathic nucleic acid transporter” (Aronex Pharmaceuticals, Inc., priority 1995, dated 1997).

Tests used:
[1] = Moore et al., 1993
[2] = tested on: animal cells; conditions: some types of animal cells; Felgner, 1990

SMILES	antibiotic activity [1]	effect on uptake kinetics of nucleic acids [2]
CC(C)[C@@H](CC[C@@H](C)[C@H]1CC[C@H]2[C@@H]3[C@H](O)C[C@H]4C[C@@H](NCCCNCCCCN)CC[C@]4(C)[C@H]3CC[C@]12C)OS(=O)(=O)O [squalamine]	broad-spectrum antibiotic	
CCCCCCCC/C=C\CCCCCCCCOCC(C[N+](C)(C)C)OCCCCCCCC/C=C\CCCCCCCC (centres unmarked) [DOTMA]		can improve the uptake kinetics of nucleic acids
